In PubChem BioAssay (NCI) one finds GI50 and TGI data, which are given here for 37 compounds.

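Growth conditions: 96-well plates. Treatment: test compound, 48 hours, 5 concentrations. Analysis: linear interpolation between bracketing concentrations; unreached endpoints set to highest concentration. GI50: concentration for 50% inhibition of growth. TGI marks complete inhibition of growth.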

Test systems include MDA-N; DMS 114 small cell lung; RXF-631 renal; M19-MEL melanoma; XF 498 CNS; HOP-18 NSCLC; SNB-78 CNS.
Common to all, as to experiment: NCI-60 cell line screen, 48 h

On to `COc1ccc(NC(=O)/C=C(C)/C=C/C=C(C)\C=C\C2=C(C)CCCC2(C)C)cc1`, for which, in the experiment on MDA-N, the GI50 is 55.3 µM and the TGI is above 100 µM.
Take `COc1ccc2nc3cccc(C(=O)NCCN(C)C)c3nc2c1`: the TGI was 3.45 µM in the experiment on DMS 114 small cell lung; above 100 µM with RXF-631 renal; 3.5 µM with M19-MEL melanoma; 0.696 µM in the experiment with XF 498 CNS; above 21.8 µM in the experiment on HOP-18 NSCLC; 9.01 µM with SNB-78 CNS.
As to `CC1=C(C(=O)Nc2ccccc2)C(c2ccc(C(C)C)cc2)C(C(=O)Nc2ccccc2)=C(C)N1`, the TGI was 47.5 µM in the experiment with DMS 114 small cell lung; above 85.1 µM in the experiment with RXF-631 renal; 35.6 µM in the experiment on M19-MEL melanoma; 27 µM with XF 498 CNS; 49.3 µM in the experiment with HOP-18 NSCLC; above 100 µM with SNB-78 CNS.
As for `CC(=O)O[C@H]1C=CC23OC(=O)[C@]1(C)[C@H]2[C@H](C(=O)O)C12CC(=O)[C@@](CO)(CC[C@H]13)C2`, the TGI in the experiment on RXF-631 renal, in the experiment on M19-MEL melanoma, in the experiment on XF 498 CNS, with HOP-18 NSCLC and in the experiment on SNB-78 CNS was above 100 µM throughout.
As for `C[n+]1c(N)n(C(=O)OCc2ccccc2)c(=O)c2c1ncn2C(=O)OCc1ccccc1`, the TGI with DMS 114 small cell lung, in the experiment on M19-MEL melanoma, with HOP-18 NSCLC and with SNB-78 CNS was above 100 µM each time.
For the compound `COC(=O)Cc1nc2ccccc2o1`, the TGI in the experiment on DMS 114 small cell lung, with RXF-631 renal, in the experiment with M19-MEL melanoma, in the experiment on XF 498 CNS, with HOP-18 NSCLC and in the experiment with SNB-78 CNS was above 100 µM in each case.
As for `COc1ccc(C(=O)O/N=C2/CCC/C2=C\c2ccccc2)cc1`, the TGI in the experiment with DMS 114 small cell lung, in the experiment with RXF-631 renal, with M19-MEL melanoma, in the experiment with XF 498 CNS, in the experiment on HOP-18 NSCLC and in the experiment with SNB-78 CNS was above 100 µM in each case.
For the compound `COc1ccc(C2=NOP(c3ccccc3)(c3ccccc3)(c3ccccc3)C2)cc1`, the TGI in the experiment on DMS 114 small cell lung was 26.2 µM; in the experiment with RXF-631 renal it was above 100 µM; in the experiment on M19-MEL melanoma it was 57.7 µM; in the experiment with XF 498 CNS it was 49.7 µM; in the experiment on HOP-18 NSCLC, above 100 µM; in the experiment on SNB-78 CNS it was above 100 µM.
`COc1cc(C2c3cc4c(cc3[C@@H](Nc3ccc(N)cc3)C3COC(=O)[C@H]23)OCO4)cc(OC)c1O` (stereo partly specified): the GI50 in the experiment on DMS 114 small cell lung was 0.911 µM; in the experiment on M19-MEL melanoma, 0.99 µM; in the experiment on XF 498 CNS, 0.716 µM; in the experiment with HOP-18 NSCLC, 0.944 µM. The TGI worked out at 8.77 µM in the experiment on DMS 114 small cell lung; 18.4 µM with MDA-N; 23.7 µM in the experiment on M19-MEL melanoma; 13.6 µM in the experiment with XF 498 CNS; 40.4 µM in the experiment with HOP-18 NSCLC; 60.5 µM in the experiment with SNB-78 CNS.
As for `Cn1cc(NC(=O)c2cc(NC(=O)CCCCCCC(=O)Nc3cc(C(=O)Nc4cc(C(=O)NCCC(=N)N)n(C)c4)n(C)c3)cn2C)cc1C(=O)NCCC(=N)N`, the TGI was 5.44 µM with DMS 114 small cell lung; 8.89 µM in the experiment with M19-MEL melanoma; 83 µM in the experiment on XF 498 CNS; above 100 µM with HOP-18 NSCLC; 69.5 µM with SNB-78 CNS.
The matching figures for `Nc1c(-c2nc3ccccc3[nH]2)sc(=S)n1-c1ccc(Cl)cc1`: 42 µM, 84.2 µM, 52.4 µM, 38.6 µM and 66.3 µM.
In turn, `O=C1c2ccccc2-c2c1c1ccccc1c(=O)n2-c1ccccc1` registered a TGI in the experiment with MDA-N above 100 µM.
Same read-out and setting: under `N#Cc1c2c(c(-c3cccs3)n(C3OC(CO)C(O)C(O)C3O)c1=S)CCc1ccccc1-2` (stereo unspecified) stands above 100 µM.
Take `Nc1ccc(C(=O)N/C(=C\c2cccc([N+](=O)[O-])c2)c2nc3c4c(ccc3[nH]2)C(=O)c2ccccc2C4=O)cc1`: the TGI in the experiment on DMS 114 small cell lung, with RXF-631 renal, in the experiment on M19-MEL melanoma, in the experiment on XF 498 CNS, in the experiment with HOP-18 NSCLC and in the experiment with SNB-78 CNS was above 100 µM each time.
For `CC(C)(C)OC(=O)N1N=NC2C3OC(CC3=O)C21` (stereo unspecified), the TGI with DMS 114 small cell lung, with RXF-631 renal, in the experiment on HOP-18 NSCLC and in the experiment with SNB-78 CNS was above 100 µM each time.
`C[N+](C)([O-])CCCNc1ccnc2cccc([N+](=O)[O-])c12` had a TGI in the experiment on MDA-N above 100 µM.
As to `O=C(/C(=C/c1ccccc1)c1ccccc1)N1c2ccccc2CC1c1c[nH]c2ccccc12` (stereo unspecified), the TGI with DMS 114 small cell lung was above 100 µM; in the experiment with M19-MEL melanoma, above 100 µM; with XF 498 CNS, 8.95 µM; with SNB-78 CNS, above 100 µM.
Regarding `COc1ccc2c(c1)OCCC1=C2SCC2(C)CCN=C12` (stereo unspecified), the TGI in the experiment with DMS 114 small cell lung, with XF 498 CNS, in the experiment with HOP-18 NSCLC and in the experiment with SNB-78 CNS was above 100 µM in each case.
In the experiment on MDA-N, `O=C(c1ccccc1)C1C(C(=O)c2ccccc2)C(c2ccccc2)N(c2ccccc2)C1c1ccccc1` (stereo unspecified) displayed a TGI above 100 µM.
As to `CN(C)CCNc1nc(-c2cccs2)cc(-c2cccs2)n1`, the TGI stood at 33.6 µM in the experiment with DMS 114 small cell lung, 12.1 µM in the experiment on XF 498 CNS and 34.1 µM in the experiment with SNB-78 CNS.
For the compound `OCC(O)C(OC1OC(CO)C(O)C(O)C1O)c1nn(-c2ccccc2)c2nc3cc(Cl)ccc3nc12` (stereo unspecified), the TGI with DMS 114 small cell lung, with M19-MEL melanoma, with XF 498 CNS and with SNB-78 CNS was above 100 µM in each case.
As for `NCP(=O)(O)OCC(=O)O`, the TGI in the experiment with DMS 114 small cell lung, in the experiment on XF 498 CNS, with HOP-18 NSCLC and with SNB-78 CNS was above 100 µM each time.
With `COc1ccc(/C=N/N=C(\[O-])c2ccncc2)cc1F.COc1ccc(/C=N\N=C(/[O-])c2ccncc2)cc1F.[Cu+2]`, in the experiment on MDA-N, the GI50 is 32.7 µM and the TGI is above 100 µM.
With `N#C/C(=C\c1ccccc1Br)C(=O)c1ccccc1`, the TGI in the experiment with DMS 114 small cell lung was above 100 µM; in the experiment on RXF-631 renal, above 100 µM; in the experiment with M19-MEL melanoma, above 89.5 µM; with XF 498 CNS, above 79.9 µM; with SNB-78 CNS, above 100 µM.
In turn, `NS(=O)(=O)c1ccc(NC(=O)Nc2ccccc2F)cc1` registered a TGI with MDA-N above 100 µM.
As to `Cc1ccc(NC(=O)CCC(=O)C(C#N)c2ccccc2)cc1C` (stereo unspecified), the TGI in the experiment with DMS 114 small cell lung, in the experiment with RXF-631 renal, in the experiment on XF 498 CNS, in the experiment on HOP-18 NSCLC and with SNB-78 CNS was above 100 µM throughout.
Consider `CC(=O)CC(=O)/C=C/c1cccs1`, for which the TGI in the experiment with DMS 114 small cell lung and in the experiment on M19-MEL melanoma was above 100 µM throughout.
`CCOC(=O)NC(=O)c1c[nH]c(=O)[nH]c1=O`: the TGI in the experiment with DMS 114 small cell lung, in the experiment with RXF-631 renal, in the experiment with M19-MEL melanoma, in the experiment on XF 498 CNS, in the experiment on HOP-18 NSCLC and in the experiment with SNB-78 CNS was above 100 µM throughout.
As to `Nc1nc(N)c(-c2ccccc2)c(CCC(=O)Nc2ccc(Cl)cc2)n1`, the TGI in the experiment on M19-MEL melanoma, in the experiment on HOP-18 NSCLC and with SNB-78 CNS was above 100 µM throughout.
Turning to `CCOC(=O)/N=c1/nc(N(C)C)ss1`, the TGI in the experiment on DMS 114 small cell lung, in the experiment on RXF-631 renal, in the experiment on XF 498 CNS, in the experiment with HOP-18 NSCLC and in the experiment with SNB-78 CNS was above 100 µM throughout.
For the compound `NS(=O)(=O)c1ccc(NC(=O)COC(=O)c2cccc3c(=O)c4ccccc4[nH]c23)cc1`, the TGI was 52.3 µM in the experiment on DMS 114 small cell lung; above 100 µM in the experiment with RXF-631 renal; above 100 µM in the experiment on M19-MEL melanoma; 58.9 µM in the experiment with HOP-18 NSCLC; 44.5 µM with SNB-78 CNS.
The compound `Cc1cc(O)c(C(c2ccncc2)c2c(O)cc(C)[nH]c2=O)c(=O)[nH]1` had a TGI in the experiment on MDA-N above 100 µM.
For `Cc1ccc(S(=O)OC23CC4CC(CC(C4)C2)C3)cc1` (stereo unspecified), the TGI in the experiment on DMS 114 small cell lung, in the experiment with RXF-631 renal, in the experiment on M19-MEL melanoma, in the experiment on XF 498 CNS, with HOP-18 NSCLC and in the experiment on SNB-78 CNS was above 100 µM each time.
`O=C(Nc1cccc(C(F)(F)F)c1)c1cc(Br)cc(Br)c1O`: in the experiment with MDA-N, the TGI was above 10 µM.
As for `C#CCN(C)C(=O)N(CC#C)N=O`, the TGI in the experiment with DMS 114 small cell lung, in the experiment with RXF-631 renal, in the experiment with M19-MEL melanoma, in the experiment with HOP-18 NSCLC and in the experiment on SNB-78 CNS was above 100 µM in each case.
Consider `CN(C)CC1CCCC/C1=N/OC(=O)c1ccc(Cl)c(Cl)c1` (stereo unspecified), for which the TGI in the experiment with DMS 114 small cell lung, in the experiment with RXF-631 renal, in the experiment with M19-MEL melanoma and with HOP-18 NSCLC was above 100 µM each time.
In turn, `Cc1ncc([N+](=O)[O-])n1CCNC(=O)CCCCCn1ccnc1[N+](=O)[O-]` showed a TGI in the experiment on MDA-N above 100 µM.
